Reference: ChEMBL document CHEMBL6074678, “Selectively Antagonizing the NOD1-Mediated Inflammatory Signaling Pathway Mitigates the Gastric Inflammation Induced by Helicobacter pylori Infection” (J Med Chem, 2024)
≈ marks a conversion by molar mass, not a printed value.

What was measured:
[1] = molecular target: T1, Nucleotide-binding oligomerization domain-containing protein 1 (Homo sapiens, UniProt Q9Y239); experiment: Antagonist activity at human NOD1 expressed in HEK-Blue cells assessed as decrease in SEAP secretion incubated for 3 hrs followed by C12-iE-DAP stimulation for 20 hrs by spectrophotometry; type: cell-based, HEK-Blue hNOD1
T1 sequence (Q9Y239 whole entry): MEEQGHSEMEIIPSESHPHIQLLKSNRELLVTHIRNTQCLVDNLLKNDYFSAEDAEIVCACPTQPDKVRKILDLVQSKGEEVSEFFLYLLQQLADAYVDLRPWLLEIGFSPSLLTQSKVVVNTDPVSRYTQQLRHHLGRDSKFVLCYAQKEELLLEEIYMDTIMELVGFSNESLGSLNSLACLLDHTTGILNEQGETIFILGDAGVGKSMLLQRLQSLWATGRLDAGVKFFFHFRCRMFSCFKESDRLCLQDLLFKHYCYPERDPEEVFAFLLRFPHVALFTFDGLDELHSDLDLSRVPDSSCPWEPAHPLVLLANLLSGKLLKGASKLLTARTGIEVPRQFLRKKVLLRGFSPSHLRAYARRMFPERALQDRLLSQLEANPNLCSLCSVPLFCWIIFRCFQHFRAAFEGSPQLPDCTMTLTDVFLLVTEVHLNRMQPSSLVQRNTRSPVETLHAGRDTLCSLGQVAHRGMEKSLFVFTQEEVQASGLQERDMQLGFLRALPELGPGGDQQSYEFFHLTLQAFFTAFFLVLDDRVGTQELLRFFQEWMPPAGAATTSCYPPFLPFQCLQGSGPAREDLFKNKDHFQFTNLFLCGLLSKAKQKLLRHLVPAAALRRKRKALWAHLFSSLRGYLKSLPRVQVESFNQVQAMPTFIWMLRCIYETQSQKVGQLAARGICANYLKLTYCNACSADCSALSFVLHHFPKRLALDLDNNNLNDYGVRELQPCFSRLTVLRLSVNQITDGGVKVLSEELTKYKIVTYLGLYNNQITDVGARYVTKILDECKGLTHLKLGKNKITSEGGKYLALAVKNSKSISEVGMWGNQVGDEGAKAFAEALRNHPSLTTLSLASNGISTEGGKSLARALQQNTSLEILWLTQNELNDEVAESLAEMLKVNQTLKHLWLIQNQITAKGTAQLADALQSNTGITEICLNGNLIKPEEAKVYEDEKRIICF

[2] = molecular target: Receptor-interacting serine/threonine-protein kinase 2 (Homo sapiens) (UniProt O43353); experiment: Inhibition of RIP2 (unknown origin) at 10 uM relative to control
Chain of Receptor-interacting serine/threonine-protein kinase 2 (Homo sapiens) (O43353 whole entry): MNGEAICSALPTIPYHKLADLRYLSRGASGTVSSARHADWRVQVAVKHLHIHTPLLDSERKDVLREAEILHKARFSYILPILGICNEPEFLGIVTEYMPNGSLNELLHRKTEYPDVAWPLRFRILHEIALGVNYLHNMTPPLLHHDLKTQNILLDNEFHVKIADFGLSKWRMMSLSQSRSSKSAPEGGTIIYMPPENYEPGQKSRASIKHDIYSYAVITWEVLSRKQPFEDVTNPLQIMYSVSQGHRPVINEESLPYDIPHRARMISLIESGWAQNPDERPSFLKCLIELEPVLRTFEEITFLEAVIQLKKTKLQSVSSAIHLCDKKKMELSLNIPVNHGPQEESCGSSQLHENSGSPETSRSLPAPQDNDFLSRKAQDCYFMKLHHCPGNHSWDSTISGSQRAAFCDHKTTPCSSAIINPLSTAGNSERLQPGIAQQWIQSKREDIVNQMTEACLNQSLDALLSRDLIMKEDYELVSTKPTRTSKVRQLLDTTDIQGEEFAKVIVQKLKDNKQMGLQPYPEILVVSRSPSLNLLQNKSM

[3] = Metabolic stability in mouse liver microsomes assessed as half life at 1.25 uM preincubated for 5 mins followed by NADPH addition measured upto 120 mins by LC-MS/MS analysis; type: ADME, Microsome; details: time < 125 min
[4] = molecular target: Toll-like receptor 4 (Homo sapiens) (UniProt O00206); experiment: Inhibition of human TLR4 at 1 uM relative to control
Chain of Toll-like receptor 4 (Homo sapiens) (O00206 whole entry, the tested form may be a part): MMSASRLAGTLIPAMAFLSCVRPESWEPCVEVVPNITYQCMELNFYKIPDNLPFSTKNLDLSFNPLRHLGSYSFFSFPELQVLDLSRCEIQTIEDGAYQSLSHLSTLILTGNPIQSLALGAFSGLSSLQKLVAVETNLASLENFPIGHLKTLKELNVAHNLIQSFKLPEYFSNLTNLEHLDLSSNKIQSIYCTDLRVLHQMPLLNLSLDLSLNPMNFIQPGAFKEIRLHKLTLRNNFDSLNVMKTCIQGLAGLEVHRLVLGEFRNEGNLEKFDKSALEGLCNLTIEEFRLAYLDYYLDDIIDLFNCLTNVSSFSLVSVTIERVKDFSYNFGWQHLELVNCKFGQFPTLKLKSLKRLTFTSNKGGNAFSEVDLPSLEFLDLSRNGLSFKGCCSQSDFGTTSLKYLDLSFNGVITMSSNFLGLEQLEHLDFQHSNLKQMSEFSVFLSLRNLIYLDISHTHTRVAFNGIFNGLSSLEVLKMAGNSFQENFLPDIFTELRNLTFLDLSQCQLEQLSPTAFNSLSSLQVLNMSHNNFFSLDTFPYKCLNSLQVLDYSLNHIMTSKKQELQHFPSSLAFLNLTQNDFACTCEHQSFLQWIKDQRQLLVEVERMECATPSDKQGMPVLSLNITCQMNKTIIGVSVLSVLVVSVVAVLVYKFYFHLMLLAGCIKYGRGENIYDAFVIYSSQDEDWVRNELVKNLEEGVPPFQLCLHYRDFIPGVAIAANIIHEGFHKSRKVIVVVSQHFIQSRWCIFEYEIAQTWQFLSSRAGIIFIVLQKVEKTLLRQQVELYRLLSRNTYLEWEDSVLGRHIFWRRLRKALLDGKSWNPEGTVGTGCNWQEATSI

[5] = molecular target: Nucleotide-binding oligomerization domain-containing protein 2 (Homo sapiens, UniProt Q9HC29); experiment: Inhibition of human NOD2 at 1 uM relative to control
Chain of Nucleotide-binding oligomerization domain-containing protein 2 (Q9HC29 whole entry, the tested form may be a part): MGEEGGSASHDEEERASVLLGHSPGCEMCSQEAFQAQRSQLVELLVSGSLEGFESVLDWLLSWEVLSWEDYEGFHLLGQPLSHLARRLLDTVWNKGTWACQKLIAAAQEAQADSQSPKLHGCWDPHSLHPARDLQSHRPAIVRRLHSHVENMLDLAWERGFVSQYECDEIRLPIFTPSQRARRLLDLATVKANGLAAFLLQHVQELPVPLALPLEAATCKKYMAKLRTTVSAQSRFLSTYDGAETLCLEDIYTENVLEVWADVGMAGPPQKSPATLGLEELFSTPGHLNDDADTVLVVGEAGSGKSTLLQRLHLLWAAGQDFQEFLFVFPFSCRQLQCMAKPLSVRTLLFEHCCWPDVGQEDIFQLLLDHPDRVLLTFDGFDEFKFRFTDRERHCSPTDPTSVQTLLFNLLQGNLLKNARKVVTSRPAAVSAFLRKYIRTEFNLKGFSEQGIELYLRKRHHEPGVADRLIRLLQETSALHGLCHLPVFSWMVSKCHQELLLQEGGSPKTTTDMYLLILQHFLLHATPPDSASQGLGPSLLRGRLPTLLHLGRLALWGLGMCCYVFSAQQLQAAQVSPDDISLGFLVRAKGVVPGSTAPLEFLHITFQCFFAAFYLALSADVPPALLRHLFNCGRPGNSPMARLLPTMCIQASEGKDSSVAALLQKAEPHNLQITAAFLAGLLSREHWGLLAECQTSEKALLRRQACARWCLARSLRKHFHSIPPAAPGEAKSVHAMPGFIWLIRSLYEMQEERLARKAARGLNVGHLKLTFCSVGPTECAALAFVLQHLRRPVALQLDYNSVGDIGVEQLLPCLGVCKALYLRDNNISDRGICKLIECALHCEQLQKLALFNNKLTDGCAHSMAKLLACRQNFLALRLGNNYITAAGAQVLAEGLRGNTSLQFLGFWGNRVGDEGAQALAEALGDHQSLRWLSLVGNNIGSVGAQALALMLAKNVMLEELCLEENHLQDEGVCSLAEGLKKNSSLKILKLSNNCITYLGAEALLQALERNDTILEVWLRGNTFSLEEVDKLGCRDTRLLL

[6] = Solubility of compound in phosphate buffer at pH 7.2 to 7.4; type: physicochemical
[7] = molecular target: T2, Nucleotide-binding oligomerization domain-containing protein 1 (Mus musculus, UniProt Q8BHB0); experiment: Antagonist activity at mouse NOD1 expressed in HEK-Blue cells assessed as decrease in SEAP secretion incubated for 3 hrs followed by C12-iE-DAP stimulation for 20 hrs by spectrophotometry; type: cell-based, HEK-Blue mNOD1
T2 sequence (Q8BHB0 whole entry): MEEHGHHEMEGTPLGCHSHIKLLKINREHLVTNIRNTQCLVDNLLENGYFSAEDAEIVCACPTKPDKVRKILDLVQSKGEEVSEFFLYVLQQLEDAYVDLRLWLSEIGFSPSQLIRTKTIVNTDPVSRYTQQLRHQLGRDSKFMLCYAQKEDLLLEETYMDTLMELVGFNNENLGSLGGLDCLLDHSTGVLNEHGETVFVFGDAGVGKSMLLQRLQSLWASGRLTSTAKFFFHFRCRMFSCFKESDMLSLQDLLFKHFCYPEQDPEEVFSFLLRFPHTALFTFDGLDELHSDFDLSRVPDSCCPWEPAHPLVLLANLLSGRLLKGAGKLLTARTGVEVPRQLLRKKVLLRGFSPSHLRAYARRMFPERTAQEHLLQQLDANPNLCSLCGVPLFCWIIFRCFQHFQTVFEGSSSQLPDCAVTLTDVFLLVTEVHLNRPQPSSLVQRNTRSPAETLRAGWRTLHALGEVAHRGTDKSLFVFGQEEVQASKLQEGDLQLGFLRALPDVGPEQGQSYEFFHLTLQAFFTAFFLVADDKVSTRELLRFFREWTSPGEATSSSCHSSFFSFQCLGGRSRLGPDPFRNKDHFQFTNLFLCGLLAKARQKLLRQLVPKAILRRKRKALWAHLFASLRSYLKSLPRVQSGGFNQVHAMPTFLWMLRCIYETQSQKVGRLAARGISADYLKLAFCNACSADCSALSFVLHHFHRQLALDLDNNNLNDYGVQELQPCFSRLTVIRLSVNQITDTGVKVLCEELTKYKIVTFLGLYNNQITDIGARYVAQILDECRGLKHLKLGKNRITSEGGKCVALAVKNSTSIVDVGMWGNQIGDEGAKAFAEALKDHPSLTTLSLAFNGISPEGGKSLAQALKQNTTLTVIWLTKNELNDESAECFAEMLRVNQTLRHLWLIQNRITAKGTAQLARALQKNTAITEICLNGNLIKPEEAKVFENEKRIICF

[8] = molecular target: Toll-like receptor 2 (Homo sapiens) (UniProt O60603); experiment: Inhibition of human TLR2 at 1 uM relative to control
Chain of Toll-like receptor 2 (Homo sapiens) (O60603 whole entry, the tested form may be a part): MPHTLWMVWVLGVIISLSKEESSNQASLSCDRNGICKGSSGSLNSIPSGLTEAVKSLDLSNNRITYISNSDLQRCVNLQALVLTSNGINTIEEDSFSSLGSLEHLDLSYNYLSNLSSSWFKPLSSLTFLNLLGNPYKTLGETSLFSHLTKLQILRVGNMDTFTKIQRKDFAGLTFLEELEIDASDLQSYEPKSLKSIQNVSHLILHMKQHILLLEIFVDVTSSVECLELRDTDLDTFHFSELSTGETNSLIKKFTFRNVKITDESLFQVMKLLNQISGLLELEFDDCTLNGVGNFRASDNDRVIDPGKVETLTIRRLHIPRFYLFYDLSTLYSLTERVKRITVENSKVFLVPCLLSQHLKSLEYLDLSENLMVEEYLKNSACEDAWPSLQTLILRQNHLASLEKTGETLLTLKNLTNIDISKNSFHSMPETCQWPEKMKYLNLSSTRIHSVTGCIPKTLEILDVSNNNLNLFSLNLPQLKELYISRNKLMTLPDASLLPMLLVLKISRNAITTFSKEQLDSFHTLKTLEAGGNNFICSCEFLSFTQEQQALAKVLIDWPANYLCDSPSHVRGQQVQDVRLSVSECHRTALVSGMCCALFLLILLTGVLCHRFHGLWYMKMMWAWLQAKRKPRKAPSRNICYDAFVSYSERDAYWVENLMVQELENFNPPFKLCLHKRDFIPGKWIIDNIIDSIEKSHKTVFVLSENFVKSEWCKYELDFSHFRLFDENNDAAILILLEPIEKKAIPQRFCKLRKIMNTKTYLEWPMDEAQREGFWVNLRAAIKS

[9] = molecular target: T3, Nucleotide-binding oligomerization domain-containing protein 1 (Mus musculus) (UniProt Q8BHB0); experiment: Antagonist activity at mouse NOD1 expressed in HEK-Blue cells assessed as decrease in SEAP secretion at 1 uM incubated for 3 hrs followed by C12-iE-DAP stimulation for 20 hrs by spectrophotometry relative to control; type: cell-based; details: HEK-Blue mNOD1, filed as antagonist, time 23.0 hrs
T3 sequence (whole entry): T2 sequence (Q8BHB0 whole entry)

| Structure (SMILES) | IC50 [1] | inhibition [2] | half-life at 1.25 µM [3] | inhibition [4] | inhibition [5] | solubility [6] | IC50 [7] | inhibition [8] | inhibition [9] |
| --- | --- | --- | --- | --- | --- | --- | --- | --- | --- |
| N#Cc1ccc2nc(Cl)n(-c3ccc(Cl)c(NS(=O)(=O)c4c(F)cccc4F)c3)c(=O)c2c1 | 2.2 nM | < 10% | 26.5 min | < 10% | < 10% | 48.8 µg/mL (≈ 96.2 µM) | 54 nM | 8.5% | 73.6% |
| CS(=O)(=O)c1ccc2nc(Cl)n(-c3ccc(Cl)c(NS(=O)(=O)c4c(F)cccc4F)c3)c(=O)c2c1 | 0.8 nM | 11.4% | 30.1 min | 10% | 36.9% | 44.6 µg/mL (≈ 79.6 µM) | 32 nM | 12.8% | 80.8% |
| CS(=O)(=O)c1ccc2nc(Cl)n(-c3ccc(Cl)c(NS(=O)(=O)c4ccc5ncsc5c4)c3)c(=O)c2c1 | 0.9 nM | 10.5% | 22.8 min | 15.8% | 16.1% | 21.5 µg/mL (≈ 37 µM) | 58 nM | 52.3% | 87.2% |
